# Data taken from ChEMBL document CHEMBL4619784, “Exploiting Existing Molecular Scaffolds for Long-Term COVID Treatment” (ACS Med Chem Lett, 2020).
# pEC50: −log10 of the molar value.
# Test system: SARS-CoV
# Assay: Antiviral activity against SARS coronavirus Urbani infected in monkey Vero E6 cells assessed as reduction in virus-induced cytopathogenicity incubated for 48 hrs by CellTiter-Glo luminescent cell viability assay
# Type: functional, organism-based
# Details: Severe acute respiratory syndrome-related coronavirus, Vero C1008, 48 h
compound,measurement,value
Cc1ccc(N)cc1C(=O)N[C@H](C)c1cccc2ccccc12,pEC50,5.00
